Laboratory results published in ChEMBL document CHEMBL2406958, “Development of a chimeric c-Src kinase and HDAC inhibitor” (ACS Med Chem Lett, 2013).
One block for each compound: values may come before it.

How the values were obtained:
SK-BR-3 = assay: Cytotoxicity against human SK-BR-3 cells after 72 hrs by WST1 assay; type: functional
[1] = Therapeutic index, ratio of GI50 for human HMEC to GI50 for human SK-BR-3 cells; settings: HMEC cells versus SK-BR-3 cells, read-out: RatioGI50
HMEC = assay: Cytotoxicity against human HMEC after 72 hrs by WST1 assay; type: cell-based
[2] = target: T1, Proto-oncogene tyrosine-protein kinase Src (Homo sapiens, UniProt P12931); assay: Inhibition of c-Src (unknown origin) by fluorescence assay
T1 sequence (P12931 2-536 limits assumed): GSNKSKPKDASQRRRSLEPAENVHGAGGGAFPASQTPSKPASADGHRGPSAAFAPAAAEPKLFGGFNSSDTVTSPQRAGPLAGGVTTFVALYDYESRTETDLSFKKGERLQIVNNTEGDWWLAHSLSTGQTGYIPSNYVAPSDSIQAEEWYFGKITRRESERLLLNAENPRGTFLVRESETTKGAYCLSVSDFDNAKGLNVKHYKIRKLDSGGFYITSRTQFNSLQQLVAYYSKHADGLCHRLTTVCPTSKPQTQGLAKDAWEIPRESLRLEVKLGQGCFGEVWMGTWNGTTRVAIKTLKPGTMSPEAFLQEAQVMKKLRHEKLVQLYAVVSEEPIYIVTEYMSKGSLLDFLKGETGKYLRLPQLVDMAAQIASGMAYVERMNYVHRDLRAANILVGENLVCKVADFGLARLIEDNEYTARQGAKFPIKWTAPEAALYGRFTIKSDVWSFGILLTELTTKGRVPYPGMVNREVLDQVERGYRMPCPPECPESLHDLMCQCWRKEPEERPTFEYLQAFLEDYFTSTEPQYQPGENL

[3] = Cytotoxicity against human NCI60 cells after 48 hrs by SRB assay; type: functional; settings: NCI60, 48 h
[4] = target: Tyrosine-protein kinase ABL1 (Homo sapiens, UniProt P00519); assay: Inhibition of c-Abl (unknown origin)
Histone deacetylase 5 = Histone deacetylase 5 (Homo sapiens, UniProt Q9UQL6); assay: Inhibition of HDAC5 (unknown origin) using Boc-Lys(trifluoroacetyl)-AMC as substrate by fluorescence assay
Chain of Histone deacetylase 5 (Q9UQL6 whole entry): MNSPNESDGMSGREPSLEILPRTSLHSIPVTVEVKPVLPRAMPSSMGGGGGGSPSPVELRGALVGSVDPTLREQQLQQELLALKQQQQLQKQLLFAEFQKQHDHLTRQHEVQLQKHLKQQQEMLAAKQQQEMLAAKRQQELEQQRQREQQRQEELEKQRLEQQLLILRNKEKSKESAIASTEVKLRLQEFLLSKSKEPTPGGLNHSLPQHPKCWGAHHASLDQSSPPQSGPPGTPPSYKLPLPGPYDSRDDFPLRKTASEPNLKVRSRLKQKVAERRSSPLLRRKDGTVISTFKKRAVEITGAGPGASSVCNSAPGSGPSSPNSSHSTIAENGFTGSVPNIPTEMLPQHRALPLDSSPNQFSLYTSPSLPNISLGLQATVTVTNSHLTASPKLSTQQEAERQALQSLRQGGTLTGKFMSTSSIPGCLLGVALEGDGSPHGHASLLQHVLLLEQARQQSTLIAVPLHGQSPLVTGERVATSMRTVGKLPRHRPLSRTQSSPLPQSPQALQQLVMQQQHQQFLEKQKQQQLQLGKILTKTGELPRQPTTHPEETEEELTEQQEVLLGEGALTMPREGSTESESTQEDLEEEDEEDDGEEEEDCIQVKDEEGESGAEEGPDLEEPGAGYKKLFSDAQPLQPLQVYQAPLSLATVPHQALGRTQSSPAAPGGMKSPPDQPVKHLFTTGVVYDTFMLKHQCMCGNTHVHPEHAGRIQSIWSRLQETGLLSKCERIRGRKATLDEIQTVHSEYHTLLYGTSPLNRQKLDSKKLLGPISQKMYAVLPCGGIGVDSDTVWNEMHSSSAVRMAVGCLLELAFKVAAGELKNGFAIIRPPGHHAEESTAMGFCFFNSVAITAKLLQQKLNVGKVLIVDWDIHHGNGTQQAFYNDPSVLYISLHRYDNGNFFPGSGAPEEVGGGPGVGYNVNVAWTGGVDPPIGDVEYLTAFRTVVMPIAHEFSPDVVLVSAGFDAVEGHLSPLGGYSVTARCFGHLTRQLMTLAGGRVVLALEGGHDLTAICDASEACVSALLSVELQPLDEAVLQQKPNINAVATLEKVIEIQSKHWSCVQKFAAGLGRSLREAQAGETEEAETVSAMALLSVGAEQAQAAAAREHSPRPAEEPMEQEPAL

MDA-MB-231 = assay: Cytotoxicity against human MDA-MB-231 cells after 48 hrs by SRB assay; type: functional; settings: MDA-MB-231, 48 h
Histone deacetylase 4 = Histone deacetylase 4 (Homo sapiens, UniProt P56524); assay: Inhibition of HDAC4 (unknown origin) using Boc-Lys(trifluoroacetyl)-AMC as substrate by fluorescence assay
[5] = target: T1, Proto-oncogene tyrosine-protein kinase Src; assay: Inhibition of c-Src (unknown origin) after 10 mins by fluorimetric assay
Histone deacetylase 1 [6] = target: T2, Histone deacetylase 1 (Homo sapiens, UniProt Q13547); assay: Inhibition of human recombinant HDAC1 using Ac-Leu-Gly-Lys(Ac)AMCA as substrate after 30 mins by fluorescence assay
T2 sequence (Q13547 whole entry): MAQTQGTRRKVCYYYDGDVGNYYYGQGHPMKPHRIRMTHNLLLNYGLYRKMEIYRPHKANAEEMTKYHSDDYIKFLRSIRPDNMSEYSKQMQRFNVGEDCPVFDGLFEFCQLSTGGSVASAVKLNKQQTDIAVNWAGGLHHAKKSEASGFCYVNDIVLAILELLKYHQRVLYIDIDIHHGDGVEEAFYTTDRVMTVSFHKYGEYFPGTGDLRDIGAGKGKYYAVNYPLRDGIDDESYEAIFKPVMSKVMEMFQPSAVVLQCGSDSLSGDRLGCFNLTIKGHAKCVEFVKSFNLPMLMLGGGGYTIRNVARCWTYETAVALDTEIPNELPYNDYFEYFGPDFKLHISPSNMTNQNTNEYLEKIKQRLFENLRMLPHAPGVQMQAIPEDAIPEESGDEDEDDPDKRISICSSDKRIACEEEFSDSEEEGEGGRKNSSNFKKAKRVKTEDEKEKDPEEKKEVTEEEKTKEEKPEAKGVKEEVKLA

Malme-3M = assay: Cytotoxicity against human MALME-3M cells after 48 hrs by SRB assay; type: functional
HCT-116 = assay: Cytotoxicity against human HCT116 cells after 48 hrs by SRB assay; type: functional; settings: HCT-116, 48 h
KM12 = assay: Cytotoxicity against human KM12 cells after 48 hrs by SRB assay; type: functional; settings: KM12, 48 h
[7] = target: Polyamine deacetylase HDAC10 (Homo sapiens, UniProt Q969S8); assay: Inhibition of HDAC10 (unknown origin) using fluorogenic peptide from p53 residues (379 to 382) (RHKK(Ac)) as substrate by fluorescence assay
Chain of Polyamine deacetylase HDAC10 (Q969S8 whole entry, the tested form may be a part): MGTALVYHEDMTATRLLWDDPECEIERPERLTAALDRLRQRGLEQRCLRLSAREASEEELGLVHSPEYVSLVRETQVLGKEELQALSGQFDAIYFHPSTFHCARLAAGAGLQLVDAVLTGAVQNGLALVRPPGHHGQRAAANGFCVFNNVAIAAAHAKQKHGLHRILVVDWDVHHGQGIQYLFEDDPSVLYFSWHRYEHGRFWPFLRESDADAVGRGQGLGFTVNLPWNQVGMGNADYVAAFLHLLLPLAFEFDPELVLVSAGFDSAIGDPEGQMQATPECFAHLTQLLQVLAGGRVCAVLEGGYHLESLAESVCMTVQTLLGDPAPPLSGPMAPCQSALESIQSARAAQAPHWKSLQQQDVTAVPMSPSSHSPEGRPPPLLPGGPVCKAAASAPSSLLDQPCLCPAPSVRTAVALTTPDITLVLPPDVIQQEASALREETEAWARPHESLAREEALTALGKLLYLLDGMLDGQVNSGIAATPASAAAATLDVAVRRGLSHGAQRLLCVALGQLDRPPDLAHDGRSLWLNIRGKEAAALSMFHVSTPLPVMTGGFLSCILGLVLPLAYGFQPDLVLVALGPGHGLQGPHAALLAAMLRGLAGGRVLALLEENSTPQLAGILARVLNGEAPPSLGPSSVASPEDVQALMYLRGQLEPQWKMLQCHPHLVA

Histone deacetylase 3 = Histone deacetylase 3 (Homo sapiens, UniProt O15379); assay: Inhibition of HDAC3 (unknown origin) using fluorogenic peptide from p53 residues (379 to 382) (RHKK(Ac)) as substrate by fluorescence assay
Chain of Histone deacetylase 3 (O15379 whole entry, the tested form may be a part): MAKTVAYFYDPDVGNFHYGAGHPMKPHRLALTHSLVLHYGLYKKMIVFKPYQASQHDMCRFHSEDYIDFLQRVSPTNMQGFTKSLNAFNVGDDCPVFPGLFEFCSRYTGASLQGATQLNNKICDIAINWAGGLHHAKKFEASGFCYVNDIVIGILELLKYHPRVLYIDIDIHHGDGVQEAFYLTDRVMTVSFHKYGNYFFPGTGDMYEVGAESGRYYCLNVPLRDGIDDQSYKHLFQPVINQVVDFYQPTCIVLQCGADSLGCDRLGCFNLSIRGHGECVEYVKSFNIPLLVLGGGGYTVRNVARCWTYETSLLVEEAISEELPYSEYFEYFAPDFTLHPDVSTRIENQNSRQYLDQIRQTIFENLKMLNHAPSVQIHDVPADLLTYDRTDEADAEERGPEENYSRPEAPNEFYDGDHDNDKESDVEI

[8] = target: Protein deacetylase HDAC6 (Homo sapiens, UniProt Q9UBN7); assay: Inhibition of HDAC6 (unknown origin) using fluorogenic peptide from p53 residues (379 to 382) (RHKK(Ac)) as substrate by fluorescence assay
Histone deacetylase 9 = Histone deacetylase 9 (Homo sapiens, UniProt Q9UKV0); assay: Inhibition of HDAC9 (unknown origin) using Boc-Lys(trifluoroacetyl)-AMC as substrate by fluorescence assay
SW-620 = assay: Cytotoxicity against human SW620 cells after 48 hrs by SRB assay; type: functional; settings: SW-620, 48 h
Histone deacetylase 2 = Histone deacetylase 2 (Homo sapiens, UniProt Q92769)
Chain of Histone deacetylase 2 (Q92769 whole entry): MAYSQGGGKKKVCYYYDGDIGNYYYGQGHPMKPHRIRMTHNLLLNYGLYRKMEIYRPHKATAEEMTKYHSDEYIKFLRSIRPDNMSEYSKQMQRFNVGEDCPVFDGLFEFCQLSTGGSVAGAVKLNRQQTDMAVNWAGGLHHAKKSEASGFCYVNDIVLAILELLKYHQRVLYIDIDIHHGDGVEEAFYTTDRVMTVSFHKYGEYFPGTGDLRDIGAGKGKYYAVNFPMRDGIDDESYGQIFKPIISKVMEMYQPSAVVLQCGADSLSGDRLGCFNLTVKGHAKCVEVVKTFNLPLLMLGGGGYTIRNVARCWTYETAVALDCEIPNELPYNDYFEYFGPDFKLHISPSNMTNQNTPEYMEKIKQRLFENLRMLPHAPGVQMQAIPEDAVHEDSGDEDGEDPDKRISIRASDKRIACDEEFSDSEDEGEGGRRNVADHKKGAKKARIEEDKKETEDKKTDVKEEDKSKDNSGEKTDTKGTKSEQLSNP

Hs-578T = assay: Cytotoxicity against human Hs578T cells after 48 hrs by SRB assay; type: functional
MCF7 = assay: Cytotoxicity against human MCF7 cells after 48 hrs by SRB assay; type: functional; settings: MCF7, 48 h
Histone deacetylase 1 [9] = target: T2, Histone deacetylase 1; assay: Inhibition of HDAC1 (unknown origin) by Fluor de Lys based assay
DU-145 = assay: Cytotoxicity against human DU145 cells after 48 hrs by SRB assay; type: functional; settings: DU-145, 48 h
Histone deacetylase 8 = Histone deacetylase 8 (Homo sapiens, UniProt Q9BY41); assay: Inhibition of HDAC8 (unknown origin) using fluorogenic peptide from p53 residues (379 to 382) (RHK(Ac)K(Ac)) as substrate by fluorescence assay
Chain of Histone deacetylase 8 (Q9BY41 whole entry, the tested form may be a part): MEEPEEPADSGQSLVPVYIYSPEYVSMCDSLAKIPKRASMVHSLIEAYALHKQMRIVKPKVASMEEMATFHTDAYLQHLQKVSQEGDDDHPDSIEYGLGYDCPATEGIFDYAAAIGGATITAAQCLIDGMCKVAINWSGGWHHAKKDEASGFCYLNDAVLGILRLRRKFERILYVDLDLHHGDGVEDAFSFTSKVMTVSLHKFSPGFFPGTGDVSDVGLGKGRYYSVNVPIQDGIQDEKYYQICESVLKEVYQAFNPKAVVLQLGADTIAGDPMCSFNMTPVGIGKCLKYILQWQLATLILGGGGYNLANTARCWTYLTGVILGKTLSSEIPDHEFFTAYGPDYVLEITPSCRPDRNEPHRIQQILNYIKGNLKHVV

Histone deacetylase 11 = Histone deacetylase 11 (Homo sapiens, UniProt Q96DB2); assay: Inhibition of HDAC11 (unknown origin) using fluorogenic peptide from p53 residues (379 to 382) (RHKK(Ac)) as substrate by fluorescence assay
Chain of Histone deacetylase 11 (Q96DB2 whole entry, the tested form may be a part): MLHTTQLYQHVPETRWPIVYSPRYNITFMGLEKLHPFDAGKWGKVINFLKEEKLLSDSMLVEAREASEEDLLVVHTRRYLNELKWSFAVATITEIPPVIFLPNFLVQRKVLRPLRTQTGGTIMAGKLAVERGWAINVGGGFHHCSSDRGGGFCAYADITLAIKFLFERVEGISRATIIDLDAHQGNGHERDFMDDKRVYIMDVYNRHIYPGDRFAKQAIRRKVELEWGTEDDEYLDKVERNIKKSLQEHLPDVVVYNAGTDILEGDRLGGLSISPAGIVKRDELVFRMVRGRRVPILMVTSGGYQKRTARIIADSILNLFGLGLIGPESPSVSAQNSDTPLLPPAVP

Histone deacetylase 1 [10] = target: T2, Histone deacetylase 1; assay: Inhibition of HDAC1 (unknown origin) using fluorogenic peptide from p53 residues (379 to 382) (RHKK(Ac)) as substrate by fluorescence assay
[11] = target: Tyrosine-protein kinase HCK (Homo sapiens, UniProt P08631); assay: Inhibition of HCK (unknown origin)
Chain of Tyrosine-protein kinase HCK (P08631 whole entry): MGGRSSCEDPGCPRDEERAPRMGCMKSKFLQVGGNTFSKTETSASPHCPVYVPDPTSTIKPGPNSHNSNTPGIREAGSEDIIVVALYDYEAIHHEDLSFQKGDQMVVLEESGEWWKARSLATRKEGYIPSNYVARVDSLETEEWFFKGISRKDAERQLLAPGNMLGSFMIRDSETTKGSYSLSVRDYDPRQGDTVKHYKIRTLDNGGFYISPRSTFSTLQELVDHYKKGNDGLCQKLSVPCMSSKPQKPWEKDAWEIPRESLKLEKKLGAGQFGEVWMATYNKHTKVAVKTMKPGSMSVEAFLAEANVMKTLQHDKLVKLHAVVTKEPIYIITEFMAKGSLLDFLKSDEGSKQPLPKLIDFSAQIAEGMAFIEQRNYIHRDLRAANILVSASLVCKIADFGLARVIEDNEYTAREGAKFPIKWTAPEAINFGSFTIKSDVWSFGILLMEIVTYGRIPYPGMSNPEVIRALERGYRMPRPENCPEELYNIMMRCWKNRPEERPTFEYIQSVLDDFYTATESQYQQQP

U-251 = assay: Cytotoxicity against human U251 cells after 48 hrs by SRB assay; type: functional; settings: U-251, 48 h

Ki [2]: 605 nM
Compound: Nc1ncnc2c1c(-c1ccc(Cl)cc1)nn2-c1ccccc1

Ki [4]: 2350 nM | IC50 (Histone deacetylase 5): 3890 nM | IC50 (Histone deacetylase 4): 3980 nM | Ki [5]: 138 nM | Ki (Histone deacetylase 1 [6]): 0.26 nM | IC50 [7]: 51 nM | IC50 (Histone deacetylase 3): 19 nM | IC50 [8]: 2.7 nM | IC50 (Histone deacetylase 9): 28000 nM | IC50 (Histone deacetylase 2): 231 nM | Ki [2]: 138 nM | Ki (Histone deacetylase 1 [9]): 0.26 nM | IC50 (Histone deacetylase 8): 2310 nM | IC50 (Histone deacetylase 11): 224 nM | IC50 (Histone deacetylase 1 [10]): 86 nM | Ki [11]: 504 nM
Compound: Nc1ncnc2c1c(-c1ccc(Cl)cc1)nn2-c1cccc(-c2cnnn2CCCCCC(=O)NO)c1
GI50 [3]: 260 nM | GI50 (MDA-MB-231): 390 nM | GI50 (Malme-3M): 70 nM | GI50 (SK-BR-3; Homo sapiens, SK-BR-3, 72 h): 200 nM | GI50 (HCT-116): 220 nM | GI50 (KM12): 470 nM | GI50 (SW-620): 250 nM | GI50 (Hs-578T): 170 nM | GI50 (MCF7): 350 nM | GI50 (HMEC): 4700 nM | GI50 (DU-145): 390 nM | GI50 (U-251): 280 nM

Ki [2]: 371 nM | Ki (Histone deacetylase 1 [9]): 0.62 nM
Compound: Nc1ncnc2c1c(-c1ccc(Cl)cc1)nn2-c1cccc(-c2cn(CCCCCC(=O)NO)nn2)c1

Ki (Histone deacetylase 1 [6]): 9.8 nM
Compound: Nc1ncnc2c1c(-c1ccc(Cl)cc1)nn2-c1cccc(-c2cnnn2CCCCCCCC(=O)NO)c1

More lines, now with the values behind:

Compound: Nc1ncnc2c1c(-c1ccc(Cl)cc1)nn2-c1cccc(-c2cnnn2Cc2cccc(-c3ccccc3)c2)c1
GI50 (SK-BR-3; Homo sapiens, SK-BR-3, 72 h): 4800 nM | selectivity ratio [1]: 0.9 | GI50 (HMEC): 4300 nM

Compound: O=C(CCCCCCC(=O)Nc1ccccc1)NO [VORINOSTAT]
GI50 (SK-BR-3): 1200 nM | GI50 (HMEC): 5800 nM

Compound: O=C(CCCCCn1nncc1-c1ccccc1)NO
Ki (Histone deacetylase 1 [9]): 45 nM

Compound: Cc1nc(Nc2ncc(C(=O)Nc3c(C)cccc3Cl)s2)cc(N2CCN(CCO)CC2)n1 [DASATINIB]
GI50 [3]: 5700 nM | GI50 (MDA-MB-231): 20 nM | GI50 (Malme-3M): 6610 nM | GI50 (HCT-116): 3700 nM | GI50 (SW-620): 8430 nM | GI50 (Hs-578T): 30 nM | GI50 (MCF7): 8320 nM | GI50 (HMEC): 1800 nM | GI50 (DU-145): 160 nM | GI50 (U-251): 2810 nM

Compound: Nc1ncnc2c1c(-c1ccc(Cl)cc1)nn2-c1cccc(-c2cnnn2Cc2cccc(/C=C/C(=O)NO)c2)c1
Ki (Histone deacetylase 1 [6]): 23 nM

Compound: Nc1ncnc2c1c(-c1ccc(Cl)cc1)nn2-c1cccc(-c2cnnn2CCCCCCC(=O)NO)c1
Ki [5]: 190 nM | Ki (Histone deacetylase 1 [6]): 0.82 nM

Compound: Nc1ncnc2c1c(-c1ccc(Cl)cc1)nn2-c1cccc(-c2cnnn2Cc2ccc(/C=C/C(=O)NO)cc2)c1
Ki [5]: 4300 nM | Ki (Histone deacetylase 1 [6]): 35 nM
